Measurements taken from patent US5506261A, “Substituted aryl- and heteroarylalkenyl-N-hydroxyurea inhibitors of leukotriene biosynthesis” (Abbott Laboratories, priority 1994, dated 1996).
pIC50: −log10 of the molar value.

System: calcium ionophore-induced LTB4 biosynthesis
Test: Inhibition of calcium ionophore (A23187)-induced LTB4 biosynthesis in human whole blood
Type: cell-based
Details: human heparinized whole blood; 15 min preincubation at 37° C.; A23187 8.3 μM, 30 minutes; LTB4 by radioimmunoassay; read-out: IC50, inhibition of leukotriene biosynthesis in human whole blood
Protocol: Inhibition of leukotriene biosynthesis was evaluated in an assay, involving calcium ionophore-induced LTB4 biosynthesis expressed human whole blood. Human heparinized whole blood was preincubated with test compounds or vehicle for 15 rain at 37° C. followed by calcium ionophore A23187 challenge (final concentration of 8.3 μM) and the reaction terminated after 30 minutes by adding two volumes of methanol containing prostaglandin B2 as an internal recovery standard. The methanol extract was analyzed for LTB4 using a commercially available radioimmunoassay.

SMILES	pIC50
C[C@H](/C=C\c1ccc(Cc2ccc(F)cc2)s1)N(O)C(N)=O [Example 1, Z-(R)-N-[3-(5-(4-Fluorophenylmethyl)-thien-2-yl)-1-methyl-2-propenyl]-N-hydroxyurea]	7.40
C[C@H](/C=C/c1ccc(Cc2ccc(F)cc2)s1)N(O)C(N)=O [Example 2, E-(R)-N-[3-(5-(4-Fluorophenylmethyl)-thien-2-yl)-1-methyl-2-propenyl]-N-hydroxyurea]	6.74
